Measured values from the NIST ThermoML archive (doi:10.1016/j.jct.2003.12.012).

Experiments:
[1] = Molar enthalpy of transition or fusion; conditions: Crystal; Adiabatic calorimetry
[2] = molar heat capacity at saturation pressure
[3] = for mass density / vapor or sublimation pressure: Liquid; for mass density: Vibrating tube method

c1ccc2c3c(sc2c1)CCCC3 [1,2,3,4-tetrahydrodibenzothiophene]
Conditions	Molar enthalpy of transition or fusion [kcal/mol]
[1]	3.348

molar heat capacity [J/K/mol], [2]
Conditions	Crystal	Liquid
4.929 K, Vacuum adiabatic calorimetry	0.32	–
5 K, Vacuum adiabatic calorimetry	0.33	–
5.867 K, Vacuum adiabatic calorimetry	0.56	–
6.798 K, Vacuum adiabatic calorimetry	0.931	–
7.734 K, Vacuum adiabatic calorimetry	1.41	–
8.759 K, Vacuum adiabatic calorimetry	2.08	–
9.819 K, Vacuum adiabatic calorimetry	2.94	–
10 K, Vacuum adiabatic calorimetry	3.08	–
10.94 K, Vacuum adiabatic calorimetry	3.96	–
12.2 K, Vacuum adiabatic calorimetry	5.23	–
13.6 K, Vacuum adiabatic calorimetry	6.8	–
15.14 K, Vacuum adiabatic calorimetry	8.647	–
16.83 K, Vacuum adiabatic calorimetry	10.74	–
18.67 K, Vacuum adiabatic calorimetry	13.06	–
20 K, Vacuum adiabatic calorimetry	14.74	–
20.68 K, Vacuum adiabatic calorimetry	15.6	–
22.91 K, Vacuum adiabatic calorimetry	18.38	–
25.4 K, Vacuum adiabatic calorimetry	21.41	–
28.17 K, Vacuum adiabatic calorimetry	24.67	–
30 K, Vacuum adiabatic calorimetry	26.76	–
31.26 K, Vacuum adiabatic calorimetry	28.16	–
34.71 K, Vacuum adiabatic calorimetry	31.86	–
38.53 K, Vacuum adiabatic calorimetry	35.74	–
40 K, Vacuum adiabatic calorimetry	37.17	–
42.79 K, Vacuum adiabatic calorimetry	39.83	–
47.54 K, Vacuum adiabatic calorimetry	44.15	–
50 K, Vacuum adiabatic calorimetry	46.29	–
52.85 K, Vacuum adiabatic calorimetry	48.69	–
58.73 K, Vacuum adiabatic calorimetry	53.4	–
59.8 K, Vacuum adiabatic calorimetry	54.26	–
60 K, Vacuum adiabatic calorimetry	54.39	–
65.16 K, Vacuum adiabatic calorimetry	58.28	–
65.33 K, Vacuum adiabatic calorimetry	58.42	–
70 K, Vacuum adiabatic calorimetry	61.88	–
71.56 K, Vacuum adiabatic calorimetry	63.02	–
78.46 K, Vacuum adiabatic calorimetry	67.87	–
80 K, Vacuum adiabatic calorimetry	68.94	–
85.75 K, Vacuum adiabatic calorimetry	72.84	–
90 K, Vacuum adiabatic calorimetry	75.67	–
90.98 K, Vacuum adiabatic calorimetry	76.33	–
93.89 K, Vacuum adiabatic calorimetry	78.25	–
99.3 K, Vacuum adiabatic calorimetry	81.84	–
100 K, Vacuum adiabatic calorimetry	82.3	–
108.29 K, Vacuum adiabatic calorimetry	87.72	–
117.93 K, Vacuum adiabatic calorimetry	93.99	–
120 K, Vacuum adiabatic calorimetry	95.28	–
127.8 K, Vacuum adiabatic calorimetry	100.49	–
138.76 K, Vacuum adiabatic calorimetry	107.84	–
140 K, Vacuum adiabatic calorimetry	108.6	–
150.73 K, Vacuum adiabatic calorimetry	116.11	–
160 K, Vacuum adiabatic calorimetry	122.46	–
162.76 K, Vacuum adiabatic calorimetry	124.52	–
174.79 K, Vacuum adiabatic calorimetry	133.17	–
180 K, Vacuum adiabatic calorimetry	136.76	–
186.82 K, Vacuum adiabatic calorimetry	141.95	–
198.84 K, Vacuum adiabatic calorimetry	151.12	–
199.7 K, Vacuum adiabatic calorimetry	151.8	–
200 K, Vacuum adiabatic calorimetry	151.75	–
210.84 K, Vacuum adiabatic calorimetry	160.54	–
212.28 K, Vacuum adiabatic calorimetry	161.67	–
220 K, Vacuum adiabatic calorimetry	167.35	–
222.84 K, Vacuum adiabatic calorimetry	170.12	–
225.76 K, Vacuum adiabatic calorimetry	172.63	–
232.14 K, Vacuum adiabatic calorimetry	177.99	–
234.83 K, Vacuum adiabatic calorimetry	180.25	–
238.71 K, Vacuum adiabatic calorimetry	183.61	–
240 K, Vacuum adiabatic calorimetry	183.48	–
247.47 K, Vacuum adiabatic calorimetry	192.11	–
249.42 K, Vacuum adiabatic calorimetry	193.97	–
251.32 K, Vacuum adiabatic calorimetry	196.13	–
260 K, Vacuum adiabatic calorimetry	200.99	–
262.17 K, Vacuum adiabatic calorimetry	216.81	–
263.64 K, Vacuum adiabatic calorimetry	221.51	–
263.71 K, Vacuum adiabatic calorimetry	222.9	–
275.03 K, Vacuum adiabatic calorimetry	216.13	256.66
280 K, Vacuum adiabatic calorimetry	–	259.07
282.32 K, Vacuum adiabatic calorimetry	–	260.24
283.78 K, Vacuum adiabatic calorimetry	–	260.98
287.63 K, Vacuum adiabatic calorimetry	–	262.81
291.46 K, Vacuum adiabatic calorimetry	–	264.72
298.15 K, Vacuum adiabatic calorimetry	–	268.09
300 K, Vacuum adiabatic calorimetry	–	269.02
300.54 K, Vacuum adiabatic calorimetry	–	269.29
301.1 K, Vacuum adiabatic calorimetry	–	269.61
315.41 K, Vacuum adiabatic calorimetry	–	277.04
320 K, Vacuum adiabatic calorimetry	–	279.47
330.79 K, Vacuum adiabatic calorimetry	–	285.2
340 K, Vacuum adiabatic calorimetry	–	290.16
343.22 K, Vacuum adiabatic calorimetry	–	291.9
359.69 K, Vacuum adiabatic calorimetry	–	300.83
360 K, Vacuum adiabatic calorimetry	–	301
376.04 K, Vacuum adiabatic calorimetry	–	309.7
380 K, Vacuum adiabatic calorimetry	–	311.85
392 K, Vacuum adiabatic calorimetry	–	318.35
400 K, Vacuum adiabatic calorimetry	–	322.67
408.31 K, Vacuum adiabatic calorimetry	–	327.12
420 K, Vacuum adiabatic calorimetry	–	333.33
424.94 K, Vacuum adiabatic calorimetry	–	335.95
437.47 K, Vacuum adiabatic calorimetry	–	342.54
440 K, Small sample (50 mg) DSC	–	344.04
460 K, Small sample (50 mg) DSC	–	355.38
480 K, Small sample (50 mg) DSC	–	366.09
500 K, Small sample (50 mg) DSC	–	376.9
520 K, Small sample (50 mg) DSC	–	387.66
540 K, Small sample (50 mg) DSC	–	398.39
560 K, Small sample (50 mg) DSC	–	409.11
580 K, Small sample (50 mg) DSC	–	419.8
600 K, Small sample (50 mg) DSC	–	430.43

[3]
Conditions	mass density [kg/m3]
323.14 K	1125.7
348.13 K	1105.2
373.12 K	1086
423.11 K	1046.8
448.11 K	1028.1

[3]
Conditions	Triple point temperature [K]	vapor or sublimation pressure [kPa]
359.98 K, Inclined piston gauge	–	0.0221
369.98 K, Inclined piston gauge	–	0.0414
379.97 K, Inclined piston gauge	–	0.0746
389.97 K, Inclined piston gauge	–	0.1296
400.17 K, Inclined piston gauge	–	0.2209
409.96 K, Inclined piston gauge	–	0.3567
419.97 K, Inclined piston gauge	–	0.5674
429.96 K, Inclined piston gauge	–	0.8785
439.96 K, Inclined piston gauge	–	1.328
449.96 K, Inclined piston gauge	–	1.962
450.48 K, Ebulliometric method (Recirculating still)	–	2.002
454.96 K, Inclined piston gauge	–	2.368
459.96 K, Inclined piston gauge	–	2.842
469.6 K, Ebulliometric method (Recirculating still)	–	3.993
478.25 K, Ebulliometric method (Recirculating still)	–	5.331
491.02 K, Ebulliometric method (Recirculating still)	–	8
500.6 K, Ebulliometric method (Recirculating still)	–	10.67
508.29 K, Ebulliometric method (Recirculating still)	–	13.32
516.36 K, Ebulliometric method (Recirculating still)	–	16.66
523.05 K, Ebulliometric method (Recirculating still)	–	19.94
531.82 K, Ebulliometric method (Recirculating still)	–	25.02
540.67 K, Ebulliometric method (Recirculating still)	–	31.18
549.55 K, Ebulliometric method (Recirculating still)	–	38.56
558.49 K, Ebulliometric method (Recirculating still)	–	47.38
567.47 K, Ebulliometric method (Recirculating still)	–	57.8
576.48 K, Ebulliometric method (Recirculating still)	–	70.09
585.54 K, Ebulliometric method (Recirculating still)	–	84.5
594.67 K, Ebulliometric method (Recirculating still)	–	101.29
603.84 K, Ebulliometric method (Recirculating still)	–	120.72
Crystal, Adiabatic calorimetry	275.03	–
